In brackets after ≈: the same amount, converted by molar mass. Activity calls are given as the source filed them. The rule behind the calls is not given here.
Legend:
Type in all cases: functional, cell-based
MCF7 [1] = test: Antiproliferative activity against human MCF7 cells after 48 hrs by CCK-8 assay; details: MCF7, 48 h
MDA-MB-231 [2] = test: Antiproliferative activity against human MDA-MB-231 cells after 48 hrs by CCK-8 assay; details: MDA-MB-231, 48 h
MCF7 [3] = test: Induction of apoptosis in human MCF7 cells after 24 hrs by annexin V-FITC and PI-based fluorescence assay
MDA-MB-231 [4] = test: Induction of apoptosis in human MDA-MB-231 cells after 24 hrs by annexin V-FITC and PI-based fluorescence assay
MDA-MB-231 [5] = test: Induction of apoptosis in human MDA-MB-231 cells at 1.25 ug/ml after 24 hrs by annexin V-FITC and PI-based fluorescence assay
MDA-MB-231 [6] = test: Induction of apoptosis in human MDA-MB-231 cells at 0.4 ug/ml after 24 hrs by annexin V-FITC and PI-based fluorescence assay
MCF7 [7] = test: Induction of apoptosis in human MCF7 cells assessed as late apoptosis at 0.9 ug/ml after 24 hrs by annexin V-FITC and PI-based fluorescence assay
MCF7 [8] = test: Induction of apoptosis in human MCF7 cells assessed as late apoptosis at 0.3 ug/ml after 24 hrs by annexin V-FITC and PI-based fluorescence assay
MCF7 [9] = test: Induction of apoptosis in human MCF7 cells assessed as early apoptosis at 0.3 ug/ml after 24 hrs by annexin V-FITC and PI-based fluorescence assay
MCF7 [10] = test: Induction of apoptosis in human MCF7 cells assessed as early apoptosis at 0.9 ug/ml after 24 hrs by annexin V-FITC and PI-based fluorescence assay

SMILES | IC50 (MCF7 [1]) [µg/mL] | IC50 (MDA-MB-231 [2]) [µg/mL] | other results
COc1ccc2[nH]c(C)c(C3=C(Br)C(=O)C(c4c(C)[nH]c5ccccc45)=C(Br)C3=O)c2c1 | > 25 | > 10 | –
Cc1[nH]c2ccccc2c1C1=C(Br)C(=O)C(c2c(-c3ccccc3)[nH]c3ccccc23)=C(Br)C1=O | 3.02 (≈ 5.15 µM) | 5.64 (≈ 9.62 µM) | –
COc1cccc2c1C(=O)c1c(O)c3c(c(O)c1C2=O)C[C@@](O)(C(=O)CO)C[C@@H]3O[C@H]1C[C@H](N)[C@H](O)[C@H](C)O1 [DOXORUBICIN] | – | 0.2 (≈ 0.368 µM) | –
Cc1[nH]c2ccccc2c1C1=C(Br)C(=O)C(c2c(C)[nH]c3ccccc23)=C(Br)C1=O | 7 (≈ 13.4 µM) | 5.55 (≈ 10.6 µM) | –
Cc1ccc(-c2[nH]c3ccccc3c2C2=C(Br)C(=O)C(c3c(C)[nH]c4ccccc34)=C(Br)C2=O)cc1 | 3.25 (≈ 5.41 µM) | 6.67 (≈ 11.1 µM) | –
Cc1ccc(-c2[nH]c3ccccc3c2C2=C(Cl)C(=O)C(c3c(C)[nH]c4ccccc34)=C(Cl)C2=O)cc1 | 2.8 (≈ 5.48 µM) | 4.21 (≈ 8.23 µM) | –
COc1ccc2[nH]c(C)c(C3=C(Cl)C(=O)C(c4c(-c5ccc(C)cc5)[nH]c5ccccc45)=C(Cl)C3=O)c2c1 | 3.11 (≈ 5.74 µM) | 4.15 (≈ 7.66 µM) | –
COc1ccc2[nH]c(C)c(C3=C(Br)C(=O)C(Br)=C(c4c(C)[nH]c5ccc(OC)cc45)C3=O)c2c1 | 4.72 (≈ 8.08 µM) | 8.43 (≈ 14.4 µM) | –
COc1ccc2[nH]c(C)c(C3=C(Br)C(=O)C(Br)=C(Br)C3=O)c2c1 | > 25 | > 10 | –
Cc1ccc(-c2[nH]c3ccccc3c2C2=C(Br)C(=O)C(Br)=C(c3c(C)[nH]c4ccccc34)C2=O)cc1 | 6.85 (≈ 11.4 µM) | 5.89 (≈ 9.81 µM) | –
Cc1[nH]c2ccccc2c1C1=C(Br)C(=O)C(Br)=C(c2c(C)[nH]c3ccccc23)C1=O | 8.33 (≈ 15.9 µM) | 4.76 (≈ 9.08 µM) | –
COc1ccc2[nH]c(C)c(C3=C(Br)C(=O)C(c4c(-c5ccccc5)[nH]c5ccccc45)=C(Br)C3=O)c2c1 | 2.57 (≈ 4.17 µM) | 5.02 (≈ 8.15 µM) | –
Cc1ccc(-c2[nH]c3ccccc3c2C2=C(Cl)C(=O)C(Cl)=C(c3c(C)[nH]c4ccccc34)C2=O)cc1 | 2.88 (≈ 5.63 µM) | 5.77 (≈ 11.3 µM) | –
Cc1ccc(-c2[nH]c3ccccc3c2C2=C(Br)C(=O)C(Br)=C(Br)C2=O)cc1 | > 25 | 21.6 (≈ 39.2 µM) | –
Cc1[nH]c2ccccc2c1C1=C(Br)C(=O)C(Br)=C(c2c(-c3ccccc3)[nH]c3ccccc23)C1=O | 3.02 (≈ 5.15 µM) | 4.33 (≈ 7.39 µM) | –
COc1ccc2[nH]c(C)c(C3=C(Br)C(=O)C(c4c(-c5ccc(C)cc5)[nH]c5ccccc45)=C(Br)C3=O)c2c1 | 2.56 (≈ 4.06 µM) | 3.99 (≈ 6.33 µM) | Activity (MCF7 [3]): Dose-dependent effect; Activity (MDA-MB-231 [4]): Dose-dependent effect; Activity (MDA-MB-231 [5]): Active; Activity (MDA-MB-231 [6]): Active
Cc1[nH]c2ccccc2c1C1=C(Cl)C(=O)C(Cl)=C(c2c(-c3ccccc3)[nH]c3ccccc23)C1=O | 2.58 (≈ 5.19 µM) | 5.27 (≈ 10.6 µM) | –
COc1ccc2[nH]c(C)c(C3=C(Cl)C(=O)C(Cl)=C(c4c(-c5ccc(C)cc5)[nH]c5ccccc45)C3=O)c2c1 | 2.31 (≈ 4.27 µM) | 6.04 (≈ 11.2 µM) | –
Cc1[nH]c2ccccc2c1C1=C(Cl)C(=O)C(c2c(-c3ccccc3)[nH]c3ccccc23)=C(Cl)C1=O | 2.29 (≈ 4.6 µM) | 4.46 (≈ 8.97 µM) | Activity (MCF7 [7]): Active; Activity (MCF7 [3]): Dose-dependent effect; Activity (MDA-MB-231 [4]): Dose-dependent effect; Activity (MCF7 [8]): Active; Activity (MCF7 [9]): Active; Activity (MCF7 [10]): Active
O=C1C(Cl)=C(Cl)C(=O)C(c2c(-c3ccccc3)[nH]c3ccccc23)=C1Cl | > 25 | 34.9 (≈ 86.8 µM) | –
COc1ccc2[nH]c(C)c(C3=C(Br)C(=O)C(Br)=C(c4c(-c5ccccc5)[nH]c5ccccc45)C3=O)c2c1 | 3.38 (≈ 5.48 µM) | 7.67 (≈ 12.4 µM) | –

Source: ChEMBL document CHEMBL2040722, “Synthesis and anti-breast cancer activity of new indolylquinone derivatives” (Eur J Med Chem, 2012)
